# Results taken from ChEMBL document CHEMBL1201862, “PubChem BioAssay data set” (2004).
#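 Protocol summary: plate cells (96-well), add compound at 5 concentrations, incubate 48 h, interpolate endpoints linearly. GI50: concentration for 50% inhibition of growth.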 Calls of active or inactive are those of the source. Rule as the data show it: active = GI50 up to about 1.1 µM and inactive = higher.
# How the values were obtained:
# Assay in all cases: NCI anticancer screen, dose series, 48 h
# DU-145 = test system: DU-145
# CAKI-1 = test system: CAKI-1
# OVCAR-3 = test system: OVCAR-3
# SW-620 = test system: SW-620
# HCC 2998 = test system: HCC 2998
# A498 = test system: A498
# OVCAR-4 = test system: OVCAR-4
# SK-MEL-5 = test system: SK-MEL-5
# NCI-H23 = test system: NCI-H23
# CCRF-CEM = test system: CCRF-CEM
# OVCAR-5 = test system: OVCAR-5
# NCI-H522 = test system: NCI-H522
# UACC-62 = test system: UACC-62
# HOP-92 = test system: HOP-92
# SR = test system: SR
# SF-295 = test system: SF-295
# Malme-3M = test system: Malme-3M
# RXF 393 = test system: RXF 393
# COLO 205 = test system: COLO 205
# SK-MEL-2 = test system: SK-MEL-2
# SF-268 = test system: SF-268
# EKVX = test system: EKVX
# MOLT-4 = test system: MOLT-4
# ACHN = test system: ACHN
# IGROV-1 = test system: IGROV-1
# BT-549 = test system: BT-549
# KM12 = test system: KM12
# MDA-MB-231 = test system: MDA-MB-231
# NCI/ADR-RES = test system: NCI/ADR-RES
# SN12C = test system: SN12C
# TK-10 = test system: TK-10
# U-251 = test system: U-251
# MCF7 = test system: MCF7
# MDA-MB-435 = test system: MDA-MB-435
# A549 = test system: A549
# M14 = test system: M14
# HCT-15 = test system: HCT-15
# UACC-257 = test system: UACC-257
# OVCAR-8 = test system: OVCAR-8
# NCI-H226 = test system: NCI-H226
# PC-3 = test system: PC-3
# HL-60 = test system: HL-60
# K562 = test system: K562
# HOP-62 = test system: HOP-62
# SNB-19 = test system: SNB-19
# MDA-N = test system: MDA-N
# UO-31 = test system: UO-31
# SK-OV-3 = test system: SK-OV-3
# SF-539 = test system: SF-539
# T47D = test system: T47D
# NCI-H460 = test system: NCI-H460
# SK-MEL-28 = test system: SK-MEL-28
# Hs-578T = test system: Hs-578T
# HT-29 = test system: HT-29
# LOX IMVI = test system: LOX IMVI
# SNB-75 = test system: SNB-75
# HCT-116 = test system: HCT-116
# 786-0 = test system: 786-0
# RPMI-8226 = test system: RPMI-8226
structure (smiles),measurement,setting,value
NNC(N)Nc1ccccc1 (stereo not given),GI50,DU-145,> 100 µM (inactive)
same,GI50,CAKI-1,> 100 µM (inactive)
same,GI50,OVCAR-3,> 100 µM (inactive)
same,GI50,SW-620,> 100 µM (inactive)
same,GI50,HCC 2998,> 100 µM (inactive)
same,GI50,A498,> 100 µM (inactive)
same,GI50,OVCAR-4,> 100 µM (inactive)
same,GI50,SK-MEL-5,> 100 µM (inactive)
same,GI50,NCI-H23,> 100 µM (inactive)
same,GI50,CCRF-CEM,> 100 µM (inactive)
same,GI50,OVCAR-5,> 100 µM (inactive)
same,GI50,NCI-H522,> 100 µM (inactive)
same,GI50,UACC-62,> 100 µM (inactive)
same,GI50,HOP-92,> 100 µM (inactive)
same,GI50,SR,> 100 µM (inactive)
same,GI50,SF-295,> 100 µM (inactive)
same,GI50,Malme-3M,> 100 µM (inactive)
same,GI50,RXF 393,> 100 µM (inactive)
same,GI50,COLO 205,> 100 µM (inactive)
same,GI50,SK-MEL-2,> 100 µM (inactive)
same,GI50,SF-268,> 100 µM (inactive)
same,GI50,EKVX,> 100 µM (inactive)
same,GI50,MOLT-4,> 100 µM (inactive)
same,GI50,ACHN,> 100 µM (inactive)
same,GI50,IGROV-1,> 100 µM (inactive)
same,GI50,BT-549,> 100 µM (inactive)
same,GI50,KM12,> 100 µM (inactive)
same,GI50,MDA-MB-231,> 100 µM (inactive)
same,GI50,NCI/ADR-RES,> 100 µM (inactive)
same,GI50,SN12C,> 100 µM (inactive)
same,GI50,TK-10,> 100 µM (inactive)
same,GI50,U-251,> 100 µM (inactive)
same,GI50,MCF7,> 100 µM (inactive)
same,GI50,MDA-MB-435,> 100 µM (inactive)
same,GI50,A549,> 100 µM (inactive)
same,GI50,M14,> 100 µM (inactive)
same,GI50,HCT-15,> 100 µM
same,GI50,UACC-257,> 100 µM (inactive)
same,GI50,OVCAR-8,> 100 µM (inactive)
same,GI50,NCI-H226,> 100 µM (inactive)
same,GI50,PC-3,> 100 µM (inactive)
same,GI50,HL-60,> 100 µM (inactive)
same,GI50,K562,> 100 µM (inactive)
same,GI50,HOP-62,> 100 µM (inactive)
same,GI50,SNB-19,> 100 µM (inactive)
same,GI50,MDA-N,> 100 µM (inactive)
same,GI50,UO-31,> 100 µM (inactive)
same,GI50,SK-OV-3,> 100 µM (inactive)
same,GI50,SF-539,> 100 µM (inactive)
same,GI50,T47D,> 100 µM (inactive)
same,GI50,NCI-H460,> 100 µM (inactive)
same,GI50,SK-MEL-28,> 100 µM (inactive)
same,GI50,Hs-578T,> 100 µM (inactive)
same,GI50,HT-29,> 100 µM (inactive)
COc1ccc(C(=O)/C=C/c2ccc(O)c(O)c2F)c(OC)c1,GI50,DU-145,3.44 µM (inactive)
same,GI50,CAKI-1,3.24 µM (inactive)
same,GI50,LOX IMVI,5.61 µM (inactive)
same,GI50,OVCAR-3,1.05 µM (active)
same,GI50,SW-620,5.09 µM (inactive)
same,GI50,HCC 2998,4.07 µM (inactive)
same,GI50,A498,8.51 µM (inactive)
same,GI50,OVCAR-4,4.09 µM (inactive)
same,GI50,SK-MEL-5,1.61 µM (inactive)
same,GI50,NCI-H23,2.43 µM (inactive)
same,GI50,CCRF-CEM,0.44 µM (active)
same,GI50,OVCAR-5,10.7 µM (inactive)
same,GI50,NCI-H522,0.327 µM (active)
same,GI50,UACC-62,7.69 µM (inactive)
same,GI50,HOP-92,20 µM (inactive)
same,GI50,SR,0.893 µM (active)
same,GI50,SF-295,5.41 µM (inactive)
same,GI50,Malme-3M,7.64 µM (inactive)
same,GI50,RXF 393,4.35 µM (inactive)
same,GI50,COLO 205,11.5 µM (inactive)
same,GI50,SK-MEL-2,3.05 µM (inactive)
same,GI50,SF-268,2.99 µM (inactive)
same,GI50,EKVX,9.08 µM (inactive)
same,GI50,MOLT-4,1.12 µM (inactive)
same,GI50,ACHN,3.01 µM (inactive)
same,GI50,IGROV-1,9.98 µM (inactive)
same,GI50,BT-549,5.38 µM (inactive)
same,GI50,KM12,4.99 µM (inactive)
same,GI50,MDA-MB-231,9.82 µM (inactive)
same,GI50,NCI/ADR-RES,4.62 µM (inactive)
same,GI50,SN12C,3.89 µM (inactive)
same,GI50,TK-10,9.18 µM (inactive)
same,GI50,U-251,2.94 µM (inactive)
same,GI50,MCF7,0.279 µM (active)
same,GI50,MDA-MB-435,3.58 µM (inactive)
same,GI50,A549,11 µM (inactive)
same,GI50,M14,7.71 µM (inactive)
same,GI50,HCT-15,0.34 µM
same,GI50,UACC-257,9.08 µM (inactive)
same,GI50,SNB-75,7.52 µM (inactive)
same,GI50,HCT-116,4.02 µM (inactive)
same,GI50,OVCAR-8,7.76 µM (inactive)
same,GI50,NCI-H226,11.4 µM (inactive)
same,GI50,PC-3,3.14 µM (inactive)
same,GI50,786-0,4.43 µM (inactive)
same,GI50,K562,2.56 µM (inactive)
same,GI50,HOP-62,4.36 µM (inactive)
same,GI50,SNB-19,8.3 µM (inactive)
same,GI50,MDA-N,3.23 µM (inactive)
same,GI50,UO-31,2.56 µM (inactive)
same,GI50,SK-OV-3,9.27 µM (inactive)
same,GI50,SF-539,3.2 µM (inactive)
same,GI50,T47D,0.649 µM (active)
same,GI50,NCI-H460,2.75 µM (inactive)
same,GI50,RPMI-8226,1.85 µM (inactive)
same,GI50,SK-MEL-28,8.11 µM (inactive)
same,GI50,Hs-578T,6.44 µM (inactive)
same,GI50,HT-29,8.97 µM (inactive)
COc1cc(CNc2c3ccccc3nc3ccccc23)cc(OC)c1OC,GI50,DU-145,4.52 µM (inactive)
same,GI50,CAKI-1,2.74 µM (inactive)
same,GI50,LOX IMVI,2.39 µM (inactive)
same,GI50,OVCAR-3,5.21 µM (inactive)
same,GI50,SW-620,1.16 µM (inactive)
same,GI50,HCC 2998,2.78 µM (inactive)
same,GI50,A498,1.82 µM (inactive)
same,GI50,OVCAR-4,2.1 µM (inactive)
same,GI50,SK-MEL-5,2.72 µM (inactive)
same,GI50,NCI-H23,3.46 µM (inactive)
same,GI50,CCRF-CEM,1.57 µM (inactive)
same,GI50,OVCAR-5,3.92 µM (inactive)
same,GI50,NCI-H522,2.55 µM (inactive)
same,GI50,UACC-62,2.43 µM (inactive)
same,GI50,HOP-92,3.58 µM (inactive)
same,GI50,SR,3.08 µM (inactive)
same,GI50,SF-295,3.56 µM (inactive)
same,GI50,Malme-3M,3.71 µM (inactive)
same,GI50,RXF 393,2.86 µM (inactive)
same,GI50,COLO 205,1.69 µM (inactive)
same,GI50,SK-MEL-2,2.23 µM (inactive)
same,GI50,SF-268,4.07 µM (inactive)
same,GI50,EKVX,5.78 µM (inactive)
same,GI50,MOLT-4,1.37 µM (inactive)
same,GI50,ACHN,3.07 µM (inactive)
same,GI50,IGROV-1,3.81 µM (inactive)
same,GI50,BT-549,3.87 µM (inactive)
same,GI50,KM12,6.21 µM (inactive)
same,GI50,MDA-MB-231,5.42 µM (inactive)
same,GI50,NCI/ADR-RES,4.16 µM (inactive)
same,GI50,SN12C,2.88 µM (inactive)
same,GI50,TK-10,5.53 µM (inactive)
same,GI50,U-251,5.08 µM (inactive)
same,GI50,MCF7,5.48 µM (inactive)
same,GI50,MDA-MB-435,3.5 µM (inactive)
same,GI50,A549,3.32 µM (inactive)
same,GI50,M14,2.59 µM (inactive)
same,GI50,HCT-15,2.97 µM
same,GI50,UACC-257,3.11 µM (inactive)
same,GI50,SNB-75,4.02 µM (inactive)
same,GI50,HCT-116,1.44 µM (inactive)
same,GI50,OVCAR-8,3.79 µM (inactive)
same,GI50,NCI-H226,3.15 µM (inactive)
same,GI50,PC-3,3.23 µM (inactive)
same,GI50,786-0,2.6 µM (inactive)
same,GI50,K562,1.32 µM (inactive)
same,GI50,HOP-62,2.93 µM (inactive)
same,GI50,SNB-19,4.63 µM (inactive)
same,GI50,MDA-N,2.76 µM (inactive)
same,GI50,UO-31,3.05 µM (inactive)
same,GI50,SK-OV-3,5.47 µM (inactive)
same,GI50,SF-539,3.95 µM (inactive)
same,GI50,T47D,6.38 µM (inactive)
same,GI50,NCI-H460,2.57 µM (inactive)
same,GI50,RPMI-8226,2.82 µM (inactive)
same,GI50,SK-MEL-28,5.04 µM (inactive)
same,GI50,Hs-578T,3.64 µM (inactive)
same,GI50,HT-29,2.49 µM (inactive)
